Laboratory results as given in US4939177A, “Use of avarol for the control of AIDS and ARC” (Merz + Co. GmbH & Co., priority 1986, dated 1990).

Columns and labels:
male NMRI mice = details: cited from earlier work
[1] = Organ distribution of tritium labelled avarol in rats; assay type: in vivo, rat; details: for Concentration of Avarol, Brain / Concentration of Avarol, Heart / Concentration of Avarol, Kidney / Concentration of Avarol, Liver / Concentration of Avarol, Skin / Concentration of Avarol, Spleen / Concentration of Avarol, Testes: rat, 24 hours
[2] = system: Interferon gamma production by peripheral human lymphocytes; assay: Interferon-gamma production by human lymphocytes (buffy coat cells), EIA; assay type: cell-based
Procedure: It is therefore advantageous that an anti-AIDS chemotherapeutic agent is provided with the ability to induce gamma Interferon in T-lymphocytes. […] The experiments were performed in vitro, using peripheral human lymphocytes (buffy coat cells) in culture.
Buffy coat cells were prepared by centrifugation on Ficoll-Plaque gradient and washed two times. Subsequently the cells were divided and adjusted to a concentration of 5×1,000,000 cells/ml.
Levels of Interferon were defined by an Enzymeimmunoassay (EIA). Interferon gamma: 96 well flat bottom plates (Greiner, Neurtingen) were coated with a monoclonal antibody recognizing Interferon gamma. 200 μl of the supernatant sample were added per well together with Interferon gamma-peroxidase coupled (50 μl), consisting of the same antibody as used for coating. […] The enzymatic reaction is completed by a preparation containing hydrogen peroxide substrate. The reaction is stopped within 15 minutes by 100 μl of sulfuric acid per well. The amount of Interferon is defined by comparing the extinction of the test sample with a standard curve produced by known values of Interferon gamma.

lymphocyte cultures = assay: [^3 H]-dThd incorporation in lymphocyte cultures from avarol-pretreated mice; assay type: cell-based, mouse; details: pretreatment of mice; macrophage-containing and macrophage-depleted cultures
Text: The effect of avarol on the lymphoid system was studied both in vitro and in vivo. […] The stimulatory influence of avarol on humoral immune responses is not accompanied by a change of the antibody-mediated hypersensitivity reaction, as measured by the Arthus reaction. No significant influence of avarol on the cellular immune system in vivo (rats or mice) was found, as taken from studies on delayed-type hypersensitivity reactions to sheep red blood cells and to oxazolone.

[3] = system: DTH to sheep red blood cells (SRBC) in NMRI mice; assay: Delayed-type hypersensitivity to sheep red blood cells; assay type: in vivo, mouse
Procedure: DTH was produced according to the method of Lagrange et al. (J. Exp. Med. 139: 528-542; 1974) and Liew (Eur. J. Immunol. 7, 714-718; 1977). Male NMRI mice (20-23 g, 10 animals/group) were immunized with 10^8 SRBC/40 μl into one foot pad (day 0). Four days later 10^9 SRBC/40 μl were injected into the other foot pad. After 24 hours, paw size was measured with a dial gauge caliper Odi-Test OOT (H. C. Kroeplin, Schluchtern, Germany). Avarol (in 0.15% [w/v] methylcellulose) was administered daily i.p. either from day -2 to +1 or from day +2 to +4. The level of DTH was expressed as foot pad increase, determined after 24 hrs; and it is given in mm. Non-treated groups were injected i.p. with methylcellulose only. Treated groups were compared with the controls using the U-test of Wilcoxon et al. (Sachs, L. Angewandte Statistik, Springer-Verlag, Berlin; 1984).

IgG titer = assay: Serum IgG titer of SRBC-immunized mice; assay type: in vivo, mouse; details: 30 mg/kg i.p., untreated 4
Procedure: The plaque test of Jerne and Nordin (Science 140: 405-406, 1963) was used with the modification given by Cunningham and Szenberg (Immunolog. 14: 599-601; 1968). Briefly, 8 male NMRI mice per group (20-22 g) were immunized on day 0 by i.p. injection of 5×10^8 SRBC in 0.5 ml saline. Treatment with avarol was done i.p. either from day 0 to day +4 or from day -4 to day 0. One hour after the last drug administration, the animals were killed by a blow on the head and bled. The spleens were removed and a single cell suspension was prepared by teasing the pooled spleens through a 120-μm mesh sieve. After lysing the erythrocytes by 0.15M NH4 Cl, the cells were washed twice in Hank's balanced salt solution containing 29 ml of 7.5% NaHCO3 and 10 ml of 1M HEPES buffer solution per one liter. The cells were resuspended in 2 ml per spleen. Six Cunningham chambers per group were filled with a mixture of 0.5 ml of a suitable dilution of spleen cells (generally 1:100), 0.5 ml of a suspension of SRBC (10^9 /ml) and 125 μl of normal guinea pig complement. After 90-120 min of incubation at 37° C., the number of plaques was counted. Plaques per spleen or per 10^6 spleen cells were calculated.
The pooled blood of 8 mice was centrifuged to obtain the serum. IgM and IgG titers were measured with the mercaptoethanol method (Hudson, L. and Hay, F. C. Practical Immunology, Blackwell Sci., Oxford; 1983).

[4] = Chemical nature and biological activity of radioactive product in rat blood (HPLC; L5178y system); assay type: in vivo; details: iv, after circulation in the body for 22 hours, read-out: modification to a biologically-inactive form
Procedure: These concentrations were determined on the basis of radioactivity. Moreover, the chemical nature of the radioactive product was identified by high-pressure liquid chromatography and found to consist of over 90% of Avarol. In addition, the biological activity of the compound in the blood was determined after extraction with ethyl acetate and estimated in the L5178y cell system in vitro (Muller, W.E.G. et al.; Comp. Biochem. Physiol. 80C, 47-52; 1985). Using this system, the biological activity of the compound, present in the blood, was determined and converted on a gram basis. Using this approach the concentration in the blood was only 5-15% lower than that determined on the basis of radioactivity.

CC1=CCC[C@H]2[C@](C)(Cc3cc(O)ccc3O)[C@@H](C)CC[C@]12C [Avarol, 2-[(1R)-1,2,3,4,4a,7,8,8aα-octahydro-1β,2β,4aβ,5-tetramethyl-1-naphthylmethyl]-1,4-benzenediol]
50% lethal dose (male NMRI mice; NMRI mice, previous experiments): 269.1 mg/kg | Acute toxicity LD10 (male NMRI mice; male NMRI mice, acute): 156.4 mg compound/kg | Subacute toxicity LD10 (male NMRI mice; male NMRI mice, subacute): 138.6 mg compound/kg | Subacute toxicity LD50 (male NMRI mice; male NMRI mice, subacute): 218.4 mg compound/kg | Concentration of Avarol, Brain ([1]; i.v. 2 mg/kg): 0.45 microgram of Avarol per gram o | Concentration of Avarol, Heart ([1]; i.v. 2 mg/kg): 0.7 microgram of Avarol per gram o | Concentration of Avarol, Kidney ([1]; i.v. 2 mg/kg): 1.6 microgram of Avarol per gram o | Concentration of Avarol, Liver ([1]; i.v. 2 mg/kg): 6.4 microgram of Avarol per gram o | Concentration of Avarol, Skin ([1]; i.v. 2 mg/kg): 0.4 microgram of Avarol per gram o | Concentration of Avarol, Spleen ([1]; i.v. 2 mg/kg): 1.7 microgram of Avarol per gram o | Concentration of Avarol, Testes ([1]; i.v. 2 mg/kg): 0.48 microgram of Avarol per gram o | Concentration of Avarol, Brain ([1]; i.v. 10 mg/kg): 0.58 microgram of Avarol per gram o | Concentration of Avarol, Heart ([1]; i.v. 10 mg/kg): 0.9 microgram of Avarol per gram o | Concentration of Avarol, Kidney ([1]; i.v. 10 mg/kg): 2.2 microgram of Avarol per gram o | Concentration of Avarol, Liver ([1]; i.v. 10 mg/kg): 6.9 microgram of Avarol per gram o | Concentration of Avarol, Skin ([1]; i.v. 10 mg/kg): 0.6 microgram of Avarol per gram o | Concentration of Avarol, Spleen ([1]; i.v. 10 mg/kg): 1.9 microgram of Avarol per gram o | Concentration of Avarol, Testes ([1]; i.v. 10 mg/kg): 0.63 microgram of Avarol per gram o | Concentration of Avarol, Brain ([1]; i.v. 20 mg/kg): 0.64 microgram of Avarol per gram o | Concentration of Avarol, Heart ([1]; i.v. 20 mg/kg): 0.9 microgram of Avarol per gram o | Concentration of Avarol, Kidney ([1]; i.v. 20 mg/kg): 2.4 microgram of Avarol per gram o | Concentration of Avarol, Liver ([1]; i.v. 20 mg/kg): 7.4 microgram of Avarol per gram o | Concentration of Avarol, Skin ([1]; i.v. 20 mg/kg): 0.6 microgram of Avarol per gram o | Concentration of Avarol, Spleen ([1]; i.v. 20 mg/kg): 2.2 microgram of Avarol per gram o | Concentration of Avarol, Testes ([1]; i.v. 20 mg/kg): 0.67 microgram of Avarol per gram o | blood-brain barrier penetration ([1]; rats, i.v.): penetrates the blood-brain barrier | Titer of Interferon-gamma ([2]; 0.2 μg/ml, 0 hours, untreated 2): 4 Units/ml of supernatant | Titer of Interferon-gamma ([2]; 0.2 μg/ml, 24 hours, untreated 5): 17 Units/ml of supernatant | Titer of Interferon-gamma ([2]; 0.2 μg/ml, 48 hours, untreated 3): 24 Units/ml of supernatant | Titer of Interferon-gamma ([2]; 0.2 μg/ml, 72 hours, untreated 7): 26 Units/ml of supernatant | Titer of Interferon-gamma ([2]; 0.2 μg/ml, 96 hours, untreated 4): 21 Units/ml of supernatant | Titer of Interferon-gamma ([2]; 0.5 μg/ml, 0 hours, untreated 2): 4 Units/ml of supernatant | Titer of Interferon-gamma ([2]; 0.5 μg/ml, 24 hours, untreated 5): 23 Units/ml of supernatant | Titer of Interferon-gamma ([2]; 0.5 μg/ml, 48 hours, untreated 3): 74 Units/ml of supernatant | Titer of Interferon-gamma ([2]; 0.5 μg/ml, 72 hours, untreated 7): 89 Units/ml of supernatant | Titer of Interferon-gamma ([2]; 0.5 μg/ml, 96 hours, untreated 4): 118 Units/ml of supernatant | Titer of Interferon-gamma ([2]; 1.0 μg/ml, 0 hours, untreated 2): 3 Units/ml of supernatant | Titer of Interferon-gamma ([2]; 1.0 μg/ml, 24 hours, untreated 5): 20 Units/ml of supernatant | Titer of Interferon-gamma ([2]; 1.0 μg/ml, 48 hours, untreated 3): 52 Units/ml of supernatant | Titer of Interferon-gamma ([2]; 1.0 μg/ml, 72 hours, untreated 7): 62 Units/ml of supernatant | Titer of Interferon-gamma ([2]; 1.0 μg/ml, 96 hours, untreated 4): 73 Units/ml of supernatant | optimal dose for Interferon gamma induction ([2]; in vitro): 0.5 µg/mL | [^3 H]-dThd incorporation rate, in words (lymphocyte cultures): higher [^3 H]-dThd incorporation rate | DTH to SRBC, immunosuppressive influence ([3]; day +2 to +4, doses higher than 10 mg/kg i.p.): weak but significant immunosuppressive effect | DTH to SRBC, immunosuppressive influence ([3]; day -2 to +1, up to daily doses of 30 mg/kg i.p.): no significant immunosuppressive influence | Titer IgG (IgG titer; from 0 to +4 days): 2 | Titer IgG (IgG titer; from -4 to 0 days): 4 | metabolised at 22 h [4]: ≤ 15%
